From patent publication US8569578B1, “Generating transgenic potatoes with novel resistance to potato cyst nematodes by silencing nematode parasitism genes of CLE -1 and CLE-4s” (The United States of America, as represented by the …, priority 2009, dated 2013)
Entries after “also recorded” stand apart in the source; their conditions may differ.

How the values were obtained:
Format in all cases: in vivo
[1] = system: Arabidopsis (Columbia-0) roots; assay: in vitro root assay with synthetic CLE peptides on Arabidopsis roots; details: 10 μM peptide in assay medium, compared with no peptide or Ag-16p
Description: (§1) Mounting evidence supports that the conserved CLE motif represents the major functional domain of plant CLE proteins. Gr-CLE genes encode four different 12-aa CLE motifs (FIG. 1A). To examine the functional sufficiency of these nematode CLE motifs, we conducted in vitro root assays (Fiers et al. 2005) using synthetic dodecapeptides (GrCLE1-1-12p, GrCLE4-1-12p, GrCLE4-2-12p, and GrCLE4-3-12p) corresponding to the four CLE motifs of Gr-CLE proteins. A 16-aa peptide (Ag-16p) (Fiers et al. 2005) corresponding to the C-terminus of AGAMOUS that has no similarity with plant CLE motifs and a 12-aa CLV3 peptide (CLV3-12p) were used as negative and positive controls, respectively. In addition, several peptides, including a mutated GrCLE1-1 dodecapeptide (GrCLE1-1m-12p, with a Gly-to-Ala conversion as in clv3-1 and clv3-5 mutants), a 14-aa GrCLE1-1 peptide (GrCLE1-1-14p, with one additional N-terminal and one additional C-terminal residue compared to Gr-CLE1-1-12p), and three 13-aa peptides of GrCLE4-1-13p, GrCLE4-2-13p, and GrCLE4-3-13p (all contained an extra N-terminal lysine residue compared to the corresponding dodecapeptides), were synthesized and used in the in vitro root assays.
(§2) Peptides with a purity of >70% were synthesized (Sigma-Aldrich Corp., St. Louis, Mo., U.S.A) and dissolved in filter-sterilized 50 mM sodium phosphate buffer. Three Gr-CLE-1 related peptides were synthesized: GrCLE1-1-12p (12 aa, RVIPGGPDPLHN; SEQ ID NO: 12), GrCLE1-1m-12p (12 aa, RVIPGAPDPLHN; SEQ ID NO: 13, with a G-to-A conversion at position 6), and GrCLE1-1-14p (14 aa, KRVIPGGPDPLHNR; SEQ ID NO: 14). Six Gr-CLE-4 related peptides were synthesized: GrCLE4-1-12p (12 aa, RVAGAGPDPIHH; SEQ ID NO: 15), GrCLE4-1-13p (13 aa, KRVAGAGPDPIHH; SEQ ID NO: 16), GrCLE4-2-12p (12 aa, RAVPAGPDPKHH; SEQ ID NO: 17), GrCLE4-2-13p (13 aa, KRAVPAGPDPKHH; SEQ ID NO: 18), GrCLE4-3-12p (12 aa, RGAPAGPDP IHH; SEQ ID NO: 19), and GrCLE4-3-13p (13 aa, KRGAPAGPDPIHH; SEQ ID NO: 20). Positive and negative control peptides included CLV3-12p (12 aa, RTVPSGPDPLHH; SEQ ID NO: 21) and Ag-16p (16 aa, APNNHHYSSAGRQDQT; SEQ ID NO: 22) (Fiers et al., 2005).
(§3) For peptide treatments, seeds of wild-type Arabidopsis (Columbia-0) and potato, nonhost and host of G. rostochiensis, respectively, were surface-sterilized and plated on square plates (8-12 seeds per plate) containing the assay medium (Fiers et al. 2005, supra) with 10 μM of each peptide. Assay plates were placed vertically in a growth chamber and cultured at 23° C. for 16 h of light and 8 h of dark. The root length was measured from the base of the hypocotyl to the tip of the primary root at several time points after plating. Two independent experiments were conducted.

potato roots = assay: in vitro root assay with synthetic CLE peptides on potato roots; details: 10 μM peptide in assay medium, compared with no peptide or Ag-16p
Description: as §1, §2, §3

[2] = system: Arabidopsis (Columbia-0) root apical meristem; assay: microscopic examination of root apical meristem of peptide treated Arabidopsis roots; details: Arabidopsis primary roots 8 days after peptide treatment
Description: To examine root meristems, primary root tips were excised from peptide treated Arabidopsis seedlings or from transgenic potato hairy roots and immediately mounted in water onto a glass slide. Roots were examined under an Olympus BX-50 microscope equipped with Nomarski optics and images were captured using a QImaging Retiga EXi digital CCD camera (QImaging, Surrey, BC, Canada). The root apical meristem (RAM) regions of individual primary roots that covered the distance from the position around the quiescent center to the position where elongated root cells immediately follow cytoplasm-dense meristematic cells were measured microscopically. The collected data were analyzed using the MetaMorph imaging analysis software (Universal Imaging Corporation, Downingtown, Pa., U.S.A.)

## RVIPGGPDPLHN (listed as Globodera rostochiensis) [GrCLE1-1-12p, synthetic 12 aa dodecapeptide of the GrCLE1-1 CLE motif]
[1]
  suppression of root growth (length of main root): suppressed root growth; also recorded: comparable level of suppression as CLV3-12p; also recorded: significantly shorter
[1]; listed as GrCLE1-1
  suppression of root growth (length of main root): higher degree of root suppression
Potato roots
  suppression of root growth (length of main root): suppressed root growth; also recorded: comparable level of suppression as CLV3-12p; also recorded: significantly shorter
[2]
  root meristem consumption (size of root apical meristem): more severe; also recorded: significantly less

## RTVPSGPDPLHH (listed as Globodera rostochiensis) [CLV3-12p, 12-aa CLV3 peptide, positive control, reference compound]
[1]
  suppression of root growth (length of main root): severely suppressed root growth
Potato roots
  suppression of root growth (length of main root): severely suppressed root growth
[2]
  root meristem consumption (size of root apical meristem): showed a phenotype of root meristem consumption
